Results: patent US20220411381A1, “PYRIMIDINEDIONE DERIVATIVES” (Bayer Aktiengesellschaft, priority 2019, published 2022)
Where two headings read alike, the source gives them in different places.

Columns and labels:
[1] = target: T1, recombinant human BCAT1 enzyme (Homo sapiens, UniProt P54687); test: In vitro assay 1a: BCAT1 biochemical assay (coupled LeuDH/NADH fluorescence readout); settings: recombinant human BCAT1 […], 32° C., 100 μM leucine, 50 μM α-ketoglutarate, NADH fluorescence over 90 min; read-out: BCAT1 IC50
T1 construct: purchased ATGen (South Korea) ATGP1479
T1 sequence (P54687 1-386): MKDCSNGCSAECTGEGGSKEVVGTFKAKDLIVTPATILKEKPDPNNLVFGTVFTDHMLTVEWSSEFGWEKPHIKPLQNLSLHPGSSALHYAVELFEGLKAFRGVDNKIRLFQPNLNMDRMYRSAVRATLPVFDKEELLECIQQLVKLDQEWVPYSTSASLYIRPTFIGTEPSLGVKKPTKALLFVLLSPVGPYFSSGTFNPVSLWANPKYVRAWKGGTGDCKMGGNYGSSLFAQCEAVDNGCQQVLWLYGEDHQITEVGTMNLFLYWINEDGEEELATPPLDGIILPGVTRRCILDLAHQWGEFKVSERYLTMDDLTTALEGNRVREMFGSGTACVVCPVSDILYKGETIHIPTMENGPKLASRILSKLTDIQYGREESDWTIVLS
How it was run: (§1)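 Transamination of leucine to KIC coupled to LeuDH-driven NADH-dependent reduction of KIC, NADH consumption read by fluorescence; 32° C in 50 mM HEPES pH 8.0, 50 mM ammonium sulfate, 1 mM EDTA, 2 mM DTT, 0.01% BSA, 0.005% Brij 35, 0.5 μM PLP.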

[2] = target: T2, recombinant human BCAT2 enzyme (Homo sapiens, UniProt O15382); test: In vitro assay 1b: BCAT2 biochemical assay (coupled LeuDH/NADH fluorescence readout); settings: recombinant human BCAT2 […], 32° C., 100 μM leucine, 50 μM α-ketoglutarate, NADH fluorescence over 90 min; read-out: BCAT2 IC50; also: recombinant human BCAT2 0.75 nM
T2 construct: purchased ATGen (South Korea) ATGP1523
T2 sequence (O15382 28-392): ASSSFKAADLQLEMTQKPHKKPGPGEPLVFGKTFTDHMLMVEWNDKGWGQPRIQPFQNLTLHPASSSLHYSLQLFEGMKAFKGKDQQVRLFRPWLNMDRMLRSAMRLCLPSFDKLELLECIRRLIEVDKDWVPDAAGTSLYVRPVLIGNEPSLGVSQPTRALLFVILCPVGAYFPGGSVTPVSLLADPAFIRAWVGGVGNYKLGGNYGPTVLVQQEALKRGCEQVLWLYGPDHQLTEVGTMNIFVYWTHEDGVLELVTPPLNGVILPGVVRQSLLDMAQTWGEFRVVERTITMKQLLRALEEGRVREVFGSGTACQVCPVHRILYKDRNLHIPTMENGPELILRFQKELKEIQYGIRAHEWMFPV
How it was run: as §1

MDA-MB231 cells = test: In vitro assay 2: BCAT cellular assay, leucine in medium of MDA-MB231 cells; format: cell-based; settings: 24 hours incubation, leucine level in medium (LeuDH/diaphorase/resazurin readout), read-out: MDAMB-231 IC50
Procedure: (§2) In Vitro Assay 2: BCAT Cellular Assay
(§3) Levels of leucine were measured in medium of different tumor cell lines. The enzyme BOAT (Branched chain amino acid transferase) catalyzes the consumption of leucine.
(§4) Cells (U87-MG and MDA-MB231 from ATCC) were grown in Dulbecco's Modified Eagle Medium (DMEM) containing 10% fetal calf serum. They were harvested by trypsin and seeded into 96-well plates. Cells were incubated overnight at 37° C. in an atmosphere containing 5% carbon dioxide. The next day test compounds were added to each cell well. The final concentration of dimethylsulfoxide (DMSO) was 0.1% and DMSO controls were included. The plates were then placed in an incubator for 24 hours.
(§5) Leucine was measured in an enzymatic readout with leucine dehydrogenase (LeuDH) and diaphorase. Medium is deproteinized with perchloric acid. 30 μl of 1 M aqueous perchloric acid was added to each well and the plates were centrifuged.

U87-MG cells = test: In vitro assay 2: BCAT cellular assay, leucine in medium of U87-MG cells; format: cell-based; settings: Homo sapiens, U-87 MG, 24 h, 24 hours incubation, leucine level in medium (LeuDH/diaphorase/resazurin readout)
Procedure: as §2, §3, §4, §5

SMILES	IC50 [1]	IC50 [2]	IC50 (MDA-MB231 cells; Homo sapiens, MDA-MB-231, 24 h)	IC50 (U87-MG cells)	IC50 (MDA-MB231 cells)
N#Cc1ccc(-n2c(=O)cc(C(F)(F)F)[nH]c2=O)cc1Oc1ccccc1Cl [Example 46, 2-(2-Chlorophenoxy)-4-[2,6-dioxo-4-(trifluoromethyl)-3,6-dihydropyrimidin-1 (2H)-yl]benzonitrile]	0.675 µM	6 µM	> 30 µM	25 µM	
COc1cc(C#N)c(Oc2ccccc2Cl)cc1-n1c(=O)cc(C(F)(F)F)[nH]c1=O (racemic) [Example 15, 2-(2-Chlorophenoxy)-4-[2,6-dioxo-4-(trifluoromethyl)-3,6-dihydropyrimidin-1(2H)-yl]-5-methoxybenzonitrile (rac)]	0.148 µM	0.83 µM	17 µM	20 µM	
Cc1ccccc1Oc1cc(-n2c(=O)cc(Br)[nH]c2=O)c(F)cc1C#N [Example 3, 4-(4-Bromo-2,6-dioxo-3,6-dihydropyrimidin-1(2H)-yl)-5-fluoro-2-(2-methylphenoxy)benzonitrile]	0.315 µM	5.5 µM	> 30 µM	11.1 µM	
COc1cc(C#N)c(Oc2ccccc2C)cc1-n1c(=O)cc(S(=O)(=O)c2ccccc2)[nH]c1=O (single isomer, unassigned) [Example 77, 4-[4-(Benzenesulfonyl)-2,6-dioxo-3,6-dihydropyrimidin-1(2H)-yl]-5-methoxy-2-(2-methylphenoxy)benzonitrile (atrop 1)]		0.77 µM		16.5 µM	16 µM
Cc1cc(C#N)c(Oc2ccccc2Cl)cc1-n1c(=O)cc(C(F)(F)F)[nH]c1=O (racemic) [Example 10, 2-(2-Chlorophenoxy)-4-[2,6-dioxo-4-(trifluoromethyl)-3,6-dihydropyrimidin-1 (2H)-yl]-5-methylbenzonitrile (rac)]	0.39 µM	6 µM	30 µM	13 µM	> 30 µM
COc1cc(C#N)c(Oc2ccccc2Cl)cc1-n1c(=O)cc(C(F)(F)F)[nH]c1=O (single isomer, unassigned) [Example 16, 2-(2-Chlorophenoxy)-4-[2,6-dioxo-4-(trifluoromethyl)-3,6-dihydropyrimidin-1(2H)-yl]-5-methoxybenzonitrile (atrop 1)]	0.15 µM	2.5 µM	10.8 µM	5.4 µM	
Cc1ccccc1Oc1cc(-n2c(=O)cc(C(F)(F)Cl)[nH]c2=O)c(F)cc1C#N [Example 40, 4-{4-[Chloro(difluoro)methyl]-2,6-dioxo-3,6-dihydropyrimidin-1(2H)-yl}-5-fluoro-2-(2-methylphenoxy)benzonitrile]	0.445 µM	2.2 µM	12 µM	4.63 µM	
